The text below walks through data of US12606739B2, “Luminescent compound, method for producing luminescent compound, luminescent composition, luminescent thin film and luminescent particles” (KONICA MINOLTA, INC., priority 2020, dated 2026).

The nature of this data set: Luminescence quantum yield of luminescent particles (melamine resin particles, aqueous dispersion). As to conditions: luminescent particle, concentration of the dye in the particle 20%, absolute fluorescence quantum yield. The data set is classed as physicochemical. Here is the method: The synthesized luminescent compound (Exemplary Compound 1-1) according to one or more embodiments of the present invention was added to 22 mL of water and dissolved. Thereafter, 2 mL of a 5% aqueous solution of Emulsion® 430 (polyoxyethyleneoleyl ether, manufactured by Kao Corporation), an emulsifier for emulsion polymerization, was added to the solution. After the solution was heated to 70° C. with stirring on a hot stirrer, 0.65 g of NIKALAC MX-035 (manufactured by Nippon Carbide Industries Co., Inc.), a melamine resin raw material, was added thereto. […]
Specifically, centrifugation was performed for 15 minutes at 20000 G using a centrifuge (Micro Refrigerated Centrifuge Model 3740 manufactured by Kubota Corporation), the supernatant was removed, ultrapure water was added thereto, ultrasonic irradiation was performed, and redispersion was performed. […] The absolute fluorescence quantum yield of the obtained aqueous dispersion of the fluorescent particles was measured using the fluorescence quantum yield measuring device (C11347-01, manufactured by Hamamatsu Photonics K.K), and this was taken as the luminescence quantum yield of the luminescent particles.
With respect to the above-described Comparative Compound 1 and Comparative Compound 2, preparation of luminescent particles and measurement of the luminescence quantum yield were performed in the same manner. […]

For the molecule `CC(C)c1cccc(C(C)C)c1N1C(=O)c2cc(Oc3ccc(S(=O)(=O)O)cc3)c3c4c(Oc5ccc(S(=O)(=O)O)cc5)cc5c6c(cc(Oc7ccc(S(=O)(=O)O)cc7)c(c7c(Oc8ccc(S(=O)(=O)O)cc8)cc(c2c37)C1=O)c64)C(=O)N(c1c(C(C)C)cccc1C(C)C)C5=O` [Comparative Compound 1], the “Luminescence Quantum Yield” value was found to be 10%.

`CC(C)c1cccc(C(C)C)c1N1C(=O)c2cc(Oc3ccc(S(=O)(=O)O)cc3-c3ccccc3)c3c4c(Oc5ccc(S(=O)(=O)O)cc5-c5ccccc5)cc5c6c(cc(Oc7ccc(S(=O)(=O)O)cc7-c7ccccc7)c(c7c(Oc8ccc(S(=O)(=O)O)cc8-c8ccccc8)cc(c2c37)C1=O)c64)C(=O)N(c1c(C(C)C)cccc1C(C)C)C5=O` [Comparative Compound 2]: the “Luminescence Quantum Yield” value is 9%.
